Measurements taken from patent US5403824A, “Methods for the treatment of osteoporosis” (The Procter & Gamble Company, priority 1993, dated 1995).

Tested on: enkephalinase
Assay: enkephalinase inhibition, cleavage of N-suc-Ala-Ala-Phe-AMC by osteoblast-like cells, fluorescence
Assay type: biochemical, rat or mouse
Settings: substrate N-succinyl-alanyl-alanylphenylalanyl-7-amido-4-methyl coumarin, 37° C., one hr
Description: One such model is described by Spillantini et al., 12 Eur. J. Pharmacol 142-150 (1986), which has been modified by Applicants. (Applicants' modification consists of using osteoblast-like cells, rather than human serum, as the source of enkephalin-degrading enzymes.) This model measures inhibition of the enkephalin-degrading enzyme "enkephalinase". According to Applicants' modified method, the source of the enkephalin-degrading enzymes i s rat osteoblast-like cells or mouse osteoblast-like cells (MC3T3-E1 cells). The substrate used is N-succinyl-alanyl-alanyl-phenylalanyl-7-amido-4-methyl coumarin (hereafter N-suc-Ala-Ala-Phe-AMC), which is known to be cleaved at the Ala-Phe peptide bond by enkephalinase. […] Aminopeptidase, which is known to specifically cleave only Phe-AMC (at the Phe-AM(peptide bond), is then added to the sample. Cleavage by aminopeptidase yields the metabolites AMC (fluorescent) and Phe. Fluorescence is then measured and is directly proportional to the amount of substrate degraded by enkephalinase.
Specifically, a test sample (containing enzyme and a putative enkephalinase inhibitor) and a control sample (containing only enzyme) are equilibrated. A quantified amount of substrate is then added to both samples. […] Fluorescence of the samples is then measured, greater fluorescence corresponding to greater degradation of the substrate by enkephalinase. […]

For `O=C(O)CNC(=O)C(CS)Cc1ccccc1` (racemic) [DL-3-mercapto-2-benzyl-propanoylglycine], the “inhibition of substrate degradation by enkephalinase (fluorescence vs control)” value was “significantly inhibited substrate degradation by enkephalinase”.
